Measurements: a melting point compilation (Tetko et al.; mined from patent text by program, amines drawn as free bases though some values may be those of a salt)

Row | Compound | melting point [°C]
1 | Oc1cccc(C=C2c3ccccc3Cc3ccccc32)c1 | 196
2 | COc1ccc(C(=O)Nc2c(Cl)cc(C(=O)O)cc2Cl)c2cc(C(C)C)oc12 | 279
3 | Cn1ccnc1Sc1ccccc1[N+](=O)[O-] | 117 to 119
4 | Fc1c(OCc2ccccc2)ccc(-c2ncc(Br)cn2)c1F | 138
5 | CCCCCCC(C(=O)Nc1ccccc1O)n1cnc(NC(=O)c2ccccc2S(=O)(=O)O)c1 (stereo not given) | 138 to 147
6 | Cc1cc(C)c2cccc(OCc3c(Cl)ccc(S(=O)(=O)N4CC(O)CC4C(=O)O)c3Cl)c2n1 (stereo not given) | > 260
7 | CC1(O)CC(=O)OC(c2ccc(OCc3ccccc3)cc2)C1Br (stereo not given) | 157 to 162
8 | O=Cc1cccn1CCN1CCC(=C2c3ccccc3CCn3ccnc32)CC1 | 158
9 | COc1cc(OCc2ccccn2)ccc1/C=C/c1cc(/C=C/c2ccccc2)[nH]n1 | 143 to 146
10 | COc1ccc(Cl)cc1NC(=O)[C@H]1[C@H](c2ccc(Cl)cc2)C1(C)C (relative stereo) | 162 to 164
11 | O=C(Nc1nc(-c2ccccc2)cs1)C(=O)OC1CCCCC1 | 160 to 161
12 | CCn1cc(C2(c3ccc(F)c(-c4cccnc4F)c3)N=C(N)N(C)C2=O)cc1C(=O)OC (stereo not given) | 114 to 117
13 | CC(C)(O)C(=O)c1ccc(F)cc1 | 131
14 | CCCn1cc(Cc2ccc(C(=O)O)cc2OC)c2cc(CCNC(=O)N3CCOCC3)ccc21 | 105 to 113
15 | Fc1ccc2c(c1)OCc1c(-c3noc(C4CC4)n3)ncn1-2 | 182 to 184
16 | O=C(O)C1C=CCn2c(=O)n(CCCS)c(=O)n21 (stereo not given) | 119 to 121
17 | CN(C)c1ccc2c(c1)C(=O)N(c1ccc3ccsc3c1)C2 | 195 to 197
18 | Cc1oc(C=Cc2ccc(Cl)cc2)nc1CC#N | 124 to 125
19 | O=C1OC2(CCN(C(=O)Nc3cnc(-c4ccccc4)cn3)CC2)c2cc(O)ccc21 | 206 to 208
20 | O=S1(=O)N=C(NC23CC4CC(CC(C4)C2)C3)Nc2cc(Cl)sc21 | 339 to 340
21 | CC(C)c1ccc(N(Cc2ccc(N(C)C)cc2)C(=O)C2CCCc3cc(O)ccc32)cc1 (stereo not given) | 169 to 171
22 | CC(=O)N(CCCOc1ccc(C(=O)O)cc1)c1ccc(Cl)cc1 | 169 to 171
23 | Cc1nc(N)nc(N)c1CCC(C)c1ccc(Cl)cc1 (stereo not given) | 125 to 128
24 | CC(C)CNC(=O)CN=Cc1ccccc1F | 154
25 | CCc1cccc(NC(=O)C(C)(C)C)n1 | 59 to 62

Row | Compound | melting point [°C]
26 | C[C@@H](NC(=O)c1cnn(-c2ccc(Cl)cc2)c1N)[C@](O)(Cn1cncn1)c1ccc(F)cc1F | 181 to 182
27 | O=C(CCC1CCCCC1)NC1N=C(c2ccccc2)c2ccccc2NC1=S (stereo not given) | 113 to 119
28 | CN(C)c1ccc(CN2C(=O)C3(COc4cc5c(cc43)OCCO5)c3ccccc32)nc1 (stereo not given) | 229 to 236
29 | O=C1N(c2cccc(C(F)(F)F)c2)CC(CCl)C1(Cl)Cl (stereo not given) | 87 to 100
30 | CCCC1(C)CC(C)c2cc(C(C)=O)c(O)c(C)c2O1 (stereo not given) | 73
31 | CC#CCCn1ncc2c(OCC)c(C(=O)OCC)cnc21 | 93 to 95
32 | NC(=O)CCCCc1c[nH]c2ccccc12 | 134 to 139
33 | COc1ccc2c(c1)C(O)C(Cc1ccc(OC)c(OC3CC4CCC3C4)c1)CO2 (stereo not given) | 115 to 117
34 | CC(C)c1cn2ccccc2c1S(=O)(=O)c1ccc(OCCCN2CCN(c3ccccc3)CC2)cc1 | 135 to 136
35 | CCCCNc1cc(C(=O)O)cc(S(N)(=O)=O)c1Oc1cccc(NC(C)=O)c1 | 235 to 240
36 | COc1cc(N=Nc2ccc3[nH]nnc3c2)c(O)c2ccccc12 | 254
37 | COc1ccc2c(c1)[nH]c(=O)c(=O)n2C | 332
38 | O=c1[nH]ccn1-c1ccc(F)cc1 | 166 to 167
39 | CCCCC1(CCCC)CCc2c(OCc3ccc4ccccc4n3)cccc2C1O (stereo not given) | 62 to 65
40 | O=S(=O)(Cc1ccccc1)c1ncc(Br)cn1 | 142 to 143
41 | COc1ccc2c(n1)C1(CO2)C(=O)N(Cc2ccc(Cl)s2)c2ccccc21 (stereo not given) | 130 to 132
42 | Cc1cc(O)c(F)cc1[N+](=O)[O-] | 110 to 112
43 | COc1cc2c(cc1Br)-c1c(-c3cccs3)c3c(n1CC2)C(=O)N(C)C(C)(C)CC3 | 173 to 175
44 | Cc1ccc(CN(CCCC(N)=O)Cc2ccc(C)cc2)cc1 | 85 to 86
45 | O=C1c2ccccc2C(=O)c2c(NCCN3CCCCC3)ccc(NCCN3CCCCC3)c21 | 140 to 141
46 | CCc1ccnc(C(=O)c2[nH]c3ccc(CC)cc3c2CC(=O)O)c1 | 206
47 | Cc1cccc2c(C(F)(F)F)c(O)ccc12 | 83 to 84
48 | COc1cc2c(Nc3ccc(Br)cc3F)ncnc2cc1OCCCSC | 250 to 252
49 | CC(C)(C)C1CCc2nnc(Cl)cc2C1 (stereo not given) | 96 to 97
50 | COC(=O)C1Cc2c([nH]c3ccccc23)C(c2ccoc2)N1 (stereo not given) | 130

Row | Compound | melting point [°C]
51 | O=C(O)CC(=O)Nc1ccccc1C(=O)O | 171 to 173
52 | CC1(C)CS(=O)(=O)CC(C)(C)N1Cl | 163
53 | Cc1cc2c(c(C)c1S(=O)(=O)C[N+](=O)[O-])CCCS2(=O)=O | 168 to 170
54 | O=C(NC(=O)C(c1ccccc1)c1ccccc1)OCCCCc1ccccc1 | 118
55 | COC(=O)c1ccc(CSc2nnc(-c3ccc4c(c3)CCO4)o2)cc1 | 125 to 126
56 | CCC(CC)c1nn(-c2ccc(C(F)(F)F)nn2)cc1CCCO | 86 to 87
57 | Cc1oc(-c2ccccc2)nc1CSc1ccc(S(=O)(=O)Nc2ccccc2C(=O)O)cc1 | 182 to 184
58 | Cc1c(C(=O)OCc2ccccc2)sc(NC(=O)c2ccccc2)c1C(=O)OC(C)(C)C | 134 to 135
59 | COc1ccccc1C(=O)c1cccc2c1ccn2S(=O)(=O)c1ccc(C)cc1 | 154
60 | c1ccc(CSc2ncccc2-c2ccccc2)cc1 | 99 to 100
61 | Cc1oc(-c2ccccc2)nc1Cc1cc2cc(N)ccc2o1 | 162
62 | N#CC1C(=O)NC(=O)C(C(=O)OCc2ccccc2)C12CCCCC2 (stereo not given) | 153 to 156
63 | CCOC(=O)CC(=O)N(C)c1ccc(Cl)cc1[N+](=O)[O-] | 45 to 47
64 | CCOC(=O)C1=C(C)NC(C)=C(C(=O)OCC)C1c1ccccc1OCc1ccccc1 | 134 to 136
65 | Cc1c(C)c2c(c(C)c1N)CC(C)(CN1CCOCC1)O2 (stereo not given) | 114 to 115
66 | CCOC(=O)c1nc2ccccc2c(=O)n1C | 48 to 50
67 | CCc1cccc(CC)c1NC(=O)Nc1oc2ccc(C)cc2c1-c1ccccc1Cl | 214 to 215
68 | CSc1nn2c(N)cc(CN3CCN(C)CC3)nc2c1S(=O)(=O)c1ccccc1 | 203 to 205
69 | CS(=O)(=O)c1ccc(-c2cnn(-c3ccc(F)c(Cl)c3)c(=O)c2Cc2cccc(F)c2)cc1 | 101 to 103
70 | COC1CCN(c2cc(NC(=O)OC(C)(C)C)c(N)cc2C#Cc2ccccc2)CC1 | 173 to 176
71 | CCCCN1C(=O)c2c(ncn2C)N2CCN=C12 | 122 to 124
72 | Brc1ccc(-c2ccc(Br)cc2-c2nc3ccccc3[nH]2)c(-c2nc3ccccc3[nH]2)c1 | 326 to 328
73 | CNS(=O)(=O)CC(=O)c1cc(OC)c(OC)c(OC)c1N | 125 to 127
74 | C/C(=C(\C#N)C(N)=S)N1CCCN(c2cccc(Cl)c2)CC1 | 133 to 134
75 | Cn1nc(-c2cc([N+](=O)[O-])c(Cl)cc2Cl)cc1OC(F)F | 134 to 137

Row | Compound | melting point [°C]
76 | Nc1ccc(NC(=O)CCC(=O)O)cc1 | 180 to 181
77 | CCc1noc(-c2cn(-c3cccc(Oc4ccc(Cl)cc4)c3)cn2)n1 | 120 to 122
78 | CC(C)(C)OC(=O)N1CCN(C(=O)Cn2sc3ccccc3c2=O)CC1 | 120 to 122
79 | COc1ccc(CN(C)CCCSc2ccc(NC(=O)c3cccc4c(=O)c5cccc(F)c5[nH]c34)cc2)cc1OC | 120 to 130
80 | CCn1c(CCSC)nc(N2CCc3ccccc3CC2)c(C#N)c1=O | 102 to 104
81 | CCCC(=O)C1c2cccc(O)c2C(=O)c2c(O)cccc21 | 138
82 | COc1cccc(CCc2c(CC(=O)NC(C)C)ccc(OC)c2OC)c1 | 138 to 140
83 | Cn1cc(Oc2cccc(C(F)(F)F)c2)c(=O)c(-c2cccc(C(F)(F)F)c2)c1 | 93 to 95
84 | COc1ccccc1NC(=O)N1CCc2cc(S(=O)(=O)N3CC(c4ccccc4)NC3=O)ccc21 (stereo not given) | 202 to 204
85 | Cc1nccc(O)c1[N+](=O)[O-] | 140
86 | O=C1CCS(=O)(=O)c2sccc21 | 121 to 122
87 | O=C(O)CCCNC(=O)c1ccc(Cl)cc1O | 131 to 133
88 | CCC1(CC)c2cc(-c3ccc(N(c4ccccc4)c4ccccc4)cc3)ccc2-c2ccc(-c3nc4ccccc4s3)cc21 | 206 to 208
89 | C[C@@H](N(CCNC(=O)OC(C)(C)C)C(=O)c1ccc(C(F)(F)F)cc1)[C@](O)(Cn1cncn1)c1ccc(F)cc1F (relative stereo) | 135 to 143
90 | COc1ccc(C(=O)Nc2ccc3ccc(Oc4cccc(C)c4)nc3n2)cc1 | 160
91 | CCCC=C(OC(C)=O)C(=Cc1ccc(Cl)cc1)n1cncn1 | 112 to 113
92 | C[C@H](CSC(=O)c1ccccc1)C(=O)N1C(=O)N(Cc2ccccc2)C[C@H]1C(=O)OC(C)(C)C | 104 to 106
93 | CCOC(=O)CCN1CCC(OC(c2ccccc2)c2ccc(C)cc2)CC1 (stereo not given) | 101 to 104
94 | C[C@@H]1N(c2ccc(C#N)c(Cl)c2)C(=O)C[C@]1(C)O | 93 to 99
95 | CC1CCC2(C)C(=CCC3C4CC(Cl)C(=O)C4(C)CCC32)C1 (stereo not given) | 159 to 165
96 | CCc1cccc(N=C(C)Nc2cccc(CC)c2)c1 | 86 to 87
97 | C/C(=C\C=C(c1ccccc1)c1ccccc1)C(=O)NCCCCc1cccnc1 | 93 to 94
98 | Cn1c(=O)c2[nH]c(C3(N)CCCC3)nc2n(C)c1=O | 288 to 290
99 | O=c1[nH]c2cc(Cl)ccc2c(O)c1-c1cccc(Cc2ccc(O)cc2)c1 | 288 to 292
100 | CSc1ncnn1C[C@]1(c2cccc(F)c2)O[C@@H]1c1ccccc1Cl (relative stereo) | 98
